These compounds were tested against T1, AXL (Homo sapiens, UniProt P30530) (assay: Filter-binding radiometric kinase activity assay (KinaseProfiler, Eurofins)). Settings: 1 µM compound; read-out: % Residual enzymatic activity at 1 µM AXL.
T1 construct: purchased Eurofins Discovery (Kinase Profiler service)
T1 sequence (P30530 26-894): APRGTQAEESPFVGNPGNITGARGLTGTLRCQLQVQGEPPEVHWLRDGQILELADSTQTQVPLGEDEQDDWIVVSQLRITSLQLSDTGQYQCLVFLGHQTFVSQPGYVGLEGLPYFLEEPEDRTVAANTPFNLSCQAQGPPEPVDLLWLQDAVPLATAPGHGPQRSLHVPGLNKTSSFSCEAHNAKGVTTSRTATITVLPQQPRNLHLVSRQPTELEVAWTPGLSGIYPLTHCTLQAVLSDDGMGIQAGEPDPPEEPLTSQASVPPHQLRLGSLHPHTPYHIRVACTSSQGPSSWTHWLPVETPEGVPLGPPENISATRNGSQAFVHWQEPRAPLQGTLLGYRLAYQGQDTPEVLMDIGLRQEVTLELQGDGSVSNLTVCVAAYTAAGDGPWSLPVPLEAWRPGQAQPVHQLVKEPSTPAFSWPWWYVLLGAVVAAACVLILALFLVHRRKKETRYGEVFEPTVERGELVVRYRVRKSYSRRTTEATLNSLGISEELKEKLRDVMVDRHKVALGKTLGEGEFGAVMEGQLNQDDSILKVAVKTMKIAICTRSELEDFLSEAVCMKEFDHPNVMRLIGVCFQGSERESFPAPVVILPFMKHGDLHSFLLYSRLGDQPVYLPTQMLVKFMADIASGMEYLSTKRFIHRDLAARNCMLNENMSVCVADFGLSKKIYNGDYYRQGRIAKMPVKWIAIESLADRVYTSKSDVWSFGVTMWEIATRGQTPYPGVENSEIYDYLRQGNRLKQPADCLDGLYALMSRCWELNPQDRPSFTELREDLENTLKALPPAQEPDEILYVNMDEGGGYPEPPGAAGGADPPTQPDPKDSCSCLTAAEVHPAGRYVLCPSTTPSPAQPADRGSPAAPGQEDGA
Assay type: biochemical

Row | remaining activity at 1 µM [%] | SMILES
1 | 4 | Nc1ncnc(Oc2ccc(NC(=O)c3cccn(-c4ccc(F)cc4)c3=O)cc2F)c1Cl [Cmpd 3, N-(4-((6-amino-5-chloropyrimidin-4-yl)oxy)-3-fluorophenyl)-1-(4-fluorophenyl)-2-oxo-1,2-dihydropyridine-3-carboxamide]
2 | 14 | Nc1ncnc(Oc2ccc(NC(=O)c3cccn(-c4ccc(F)cc4)c3=O)cc2)c1F [Cmpd 6, N-(4-((6-amino-5-fluoropyrimidin-4-yl)oxy)phenyl)-1-(4-fluorophenyl)-2-oxo-1,2-dihydropyridine-3-carboxamide]
3 | 8 | Nc1ncnc(Oc2ccc(NC(=O)c3cccn(-c4ccc(F)cc4)c3=O)c(F)c2)c1F [Cmpd 7, N-(4-((6-amino-5-fluoropyrimidin-4-yl)oxy)-2-fluorophenyl)-1-(4-fluorophenyl)-2-oxo-1,2-dihydropyridine-3-carboxamide]
4 | -8 | Nc1ncnc(Oc2ccc(NC(=O)c3cccn(-c4ccc(F)cc4)c3=O)c(F)c2)c1Cl [Cmpd 5, N-(4-((6-amino-5-chloropyrimidin-4-yl)oxy)-2-fluorophenyl)-1-(4-fluorophenyl)-2-oxo-1,2-dihydropyridine-3-carboxamide]
5 | 13 | Nc1ncnc(Oc2ccc(NC(=O)c3cccn(-c4ccc(F)cc4)c3=O)cc2F)c1F [Cmpd 1, N-(4-((6-amino-5-fluoropyrimidin-4-yl)oxy)-3-fluorophenyl)-1-(4-fluorophenyl)-2-oxo-1,2-dihydropyridine-3-carboxamide]
6 | -1 | Nc1ncnc(Oc2ccc(NC(=O)c3cccn(-c4ccc(F)cc4)c3=O)cc2)c1Cl [Cmpd 4, N-(4-((6-amino-5-chloropyrimidin-4-yl)oxy)phenyl)-1-(4-fluorophenyl)-2-oxo-1,2-dihydropyridine-3-carboxamide]
